According to patent US20170253601A1, “Substituted Pyrrolidine Compounds” (EPIZYME, INC., priority 2014, published 2017):

What follows are compounds tested against T1, human SMYD3 (Homo sapiens, UniProt Q9H7B4) (assay: SMYD3 Biochemical Assay (3H-SAM, MEKK2 protein substrate, SPA)). Settings: Table 1; average of n = 1 to n = 50; read-out: SMYD3 Biochem IC50.
T1 construct: Expressed full-length human His-tagged SMYD3 protein was purified from cell paste; His6 (cleaved yes); TEV and SUMO cleavage sites (cleaved yes); made in house; host or cells: E. coli BL21 codonplus RIL
T1 sequence (Q9H7B4 1-428): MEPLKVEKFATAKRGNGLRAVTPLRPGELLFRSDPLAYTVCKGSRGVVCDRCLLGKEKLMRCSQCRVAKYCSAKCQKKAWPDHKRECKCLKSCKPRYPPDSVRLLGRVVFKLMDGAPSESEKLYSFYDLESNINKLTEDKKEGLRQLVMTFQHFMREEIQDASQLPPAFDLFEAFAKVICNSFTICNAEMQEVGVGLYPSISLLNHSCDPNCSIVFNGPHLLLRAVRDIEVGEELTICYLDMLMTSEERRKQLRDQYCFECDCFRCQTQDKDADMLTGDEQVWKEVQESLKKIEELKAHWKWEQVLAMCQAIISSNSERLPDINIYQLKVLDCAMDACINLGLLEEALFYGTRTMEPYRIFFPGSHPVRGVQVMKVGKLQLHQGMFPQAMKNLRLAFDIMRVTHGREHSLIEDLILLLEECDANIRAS
Text: S-adenosylmethionine (SAM), S-adenosylhomocysteine (SAH), Tris, Tween20, dimethylsulfoxide (DMSO), bovine skin gelatin (BSG), and Tris(2-carboxyethyl)phosphine hydrochloride solution (TCEP) were purchased from Sigma-Aldrich at the highest level of purity possible. ^3H-SAM was purchase from American Radiolabeled Chemicals with a specific activity of 80 Ci/mmol. 384-well opaque white OptiPlates and SPA beads (Perkin Elmer, catalog # RPNQ0013) were purchased from PerkinElmer.
N-terminally GST-tagged MEKK2 (MAP3K2) protein corresponding to reference sequence AAF63496.3 was purchased from Life Technologies (catalog # PV4010). This protein was expressed in High Five insect cells and purified to >85% purity. Protein identity was confirmed by MS/MS analysis after proteolytic digestion. The protein sequence used was:
Full-length human SMYD3 isoform 1 (BAB86333) was inserted into a modified pET21b plasmid containing a His6 tag and TEV and SUMO cleavage sites. Because two common variants of SMYD3 exist in the population, site directed mutagenesis was subsequently performed to change amino acid 13 from an asparagine to a lysine, resulting in plasmid pEPZ533. A lysine at position 13 conforms to the more commonly occurring sequence (NP_001161212).
E. coli (BL21 codonplus RIL strain, Stratagene) were transformed with plasmid pEPZ553 by mixing competent cells and plasmid DNA and incubating on ice for 30 minutes followed by heat shock at 42° C. for 1 minute and cooling on ice for 2 minutes. Transformed cells were grown and selected on LB agar with 100 μg/mL ampicillin and 17 μg/mL chloramphenicol at 37° C. overnight. A single clone was used to inoculate 200 mL of LB medium with 100 μg/mL ampicillin and 17 μg/mL chloramphenicol and incubated at 37° C. on an orbital shaker at 180 rpm. Once in log growth, the culture was diluted 1:100 into 2 L of LB medium and grown until OD600 was about 0.3 after which the culture was incubated at 15° C. and 160 rpm. Once OD600 reached about 0.4, IPTG was added to a final concentration of 0.1 mM and the cells were grown overnight at 15° C. and 160 rpm. Cells were harvested by centrifugation at 8000 rpm, for 4 minutes at 4° C. and stored at −80° C. for purification.
Expressed full-length human His-tagged SMYD3 protein was purified from cell paste by Nickel affinity chromatography after equilibration of the resin with Buffer A (25 mM Tris, 200 mM NaCl, 5% glycerol, 5 mM β-mercaptoethanol, pH7.8). The column was washed with Buffer B (Buffer A plus 20 mM imidazole) and His-tagged SMYD3 was eluted with Buffer C (Buffer A plus 300 mM imidazole). The His tag, TEV and SUMO cleavage sites were removed generating native SMYD3 by addition of ULP1 protein at a ratio of 1:200 (ULP1:SMYD3). Imidazole was removed by dialysis overnight in Buffer A. The dialyzed solution was applied to a second Nickel column and the native SMYD3 protein was collected from the column flow-through. The flow-through was dialyzed in Buffer D (25 mM Tris, 5% glycerol, 5 mM β-mercaptoethanol, 50 mM NaCl, pH7.8) and ULP1 was removed using a Q sepharose fast flow column. SMYD3 was eluted in Buffer A and further purified using an S200 size-exclusion column equilibrated with Buffer A. SMYD3 was concentrated to 2 mg/mL with a final purity of 89%.
The assays were all performed in a buffer consisting of 25 mM Tris-Cl pH 8.0, 1 mM TCEP, 0.005% BSG, and 0.005% Tween 20, prepared on the day of use. Compounds in 100% DMSO (1 ul) were spotted into a 384-well white opaque OptiPlate using a Bravo automated liquid handling platform outfitted with a 384-channel head (Agilent Technologies). DMSO (1 ul) was added to Columns 11, 12, 23, 24, rows A-H for the maximum signal control and 1 ul of SAH, a known product and inhibitor of SMYD3, was added to columns 11, 12, 23, 24, rows I-P for the minimum signal control. A cocktail (40 ul) containing the SMYD3 enzyme was added by Multidrop Combi (Thermo-Fisher). […]

Q: Which IC50 does the source give for CN1C[C@H](NC(=O)c2cc(C3CC3)on2)[C@H](c2ccccc2)C1 (racemic) [compound 17, (±)-cis-5-cyclopropyl-N-((1-methyl-4-phenylpyrrolidin-3-yl)isoxazole-3-carboxamide] here?
A: 56.2 µM

Q: Which IC50 does the source give for CN1C[C@H](NC(=O)c2cc(C3CC3)on2)[C@@H](c2ccccc2)C1 (racemic) [compound 18, (±)-trans-5-cyclopropyl-N-(1-methyl-4-phenylpyrrolidin-3-yl)isoxazole-3-carboxamide] here?
A: 50.4 µM

Q: With C[C@@H]1C[C@H](NC(=O)c2cc(C3CC3)on2)C(=O)N1c1cnn(C)c1 (racemic) [compound 19, (±)-cis-5-cyclopropyl-N-(5-methyl-1-(1-methyl-1H-pyrazol-4-yl)-2-oxopyrrolidin-3-yl)isoxazole-3-carboxamide] as the compound, how does the IC50 read?
A: > 200 µM

Q: With C[C@H]1C[C@H](NC(=O)c2cc(C3CC3)on2)C(=O)N1c1cnn(C)c1 (racemic) [compound 20, (±)-trans 5-cyclopropyl-N-(5-methyl-1-(1-methyl-1H-pyrazol-4-yl)-2-oxopyrrolidin-3-yl)isoxazole-3-carboxamide] as the compound, how does the IC50 read?
A: > 200 µM

Q: Which IC50 does the source give for CC(=O)Nc1ccc(S(=O)(=O)N2CC[C@H](NC(=O)c3cc(C4CC4)on3)C2)cc1 [compound 1, (S)-N-(1-((4-acetamido-phenyl)sulfonyl)pyrrolidin-3-yl)-5-cyclopropyl-isoxazole-3-carboxamide] here?
A: > 100 µM

Q: With CC(=O)Nc1ccc(S(=O)(=O)N2CC[C@@H](NC(=O)c3cc(C4CC4)on3)C2)cc1 [compound 2, (R)-N-(1-((4-acetamido-phenyl)sulfonyl)pyrrolidin-3-yl)-5-cyclopropyl-isoxazole-3-carboxamide] as the compound, how does the IC50 read?
A: > 100 µM

Q: With O=C(N[C@H]1CCNC1)c1cc(C2CC2)on1 [compound 3, (S)-5-cyclopropyl-N-(pyrrolidin-3-yl)isoxazole-3-carboxamide] as the compound, how does the IC50 read?
A: 80.3 µM

Q: For O=C(N[C@@H]1CCNC1)c1cc(C2CC2)on1 [compound 4, (R)-5-cyclopropyl-N-(pyrrolidin-3-yl)isoxazole-3-carboxamide], which IC50 is on record?
A: 83.7 µM

Q: With CN1CCC(NC(=O)c2cc(C3CC3)on2)C1c1ccccc1 (stereo not shown) [compound 5, 5-cyclopropyl-N-(1-methyl-2-phenyl-pyrrolidin-3-yl)isoxazole-3-carboxamide] as the compound, how does the IC50 read?
A: 55.1 µM

Q: Which IC50 does the source give for Cc1cc(N2CCC(NC(=O)c3cc(C4CC4)on3)C2=O)n(C)n1 (stereo not shown) [compound 6, 5-cyclopropyl-N-(1-(1,3-dimethyl-1H-pyrazol-5-yl)-2-oxopyrrolidin-3-yl)isoxazole-3-carboxamide] here?
A: > 200 µM

Q: For CN1CCC(NC(=O)c2cc(C3CC3)on2)C1c1ccc(Cl)c(F)c1 (stereo not shown) [compound 7, N-(2-(4-chloro-3-fluorophenyl)-1-methylpyrrolidin-3-yl)-5-cyclo-propylisoxazole-3-carboxamide], which IC50 is on record?
A: 51.5 µM

Q: For O=C(NC1CCN(C2CC2)C1c1ccc(F)c(F)c1)c1cc(C2CC2)on1 (stereo not shown) [compound 8, 5-cyclopropyl-N-(1-cyclopropyl-2-(3,4-difluoro-phenyl)pyrrolidin-3-yl)isoxazole-3-carboxamide], which IC50 is on record?
A: 12.4 µM

Q: How did the IC50 turn out when CN1CCC(NC(=O)c2cc(C3CC3)on2)C1c1ccc(F)c(F)c1 (stereo not shown) [compound 9, 5-cyclopropyl-N-(2-(3,4-difluorophenyl)-1-methylpyrrolidin-3-yl)isoxazole-3-carboxamide] was run?
A: 67.2 µM

Q: How did the IC50 turn out when CC1CC(NC(=O)c2cc(C3CC3)on2)CN1c1ccccc1 (stereo not shown) [compound 10, 5-cyclopropyl-N-(5-methyl-1-phenylpyrrolidin-3-yl)isoxazole-3-carboxamide] was run?
A: 53.5 µM

Q: With CC1CC(NC(=O)c2cc(C3CC3)on2)C(=O)N1c1ccccc1 (stereo not shown) [compound 11, 5-cyclopropyl-N-(5-methyl-2-oxo-1-phenylpyrrolidin-3-yl)isoxazole-3-carboxamide] as the compound, how does the IC50 read?
A: 78.1 µM

Q: How did the IC50 turn out when CC(C)N1CCC(NC(=O)c2cc(C3CC3)on2)C1c1ccc(F)c(F)c1 (stereo not shown) [compound 12, 5-cyclopropyl-N-(2-(3,4-difluorophenyl)-1-isopropylpyrrolidin-3-yl)isoxazole-3-carboxamide] was run?
A: 58.6 µM

Q: CN1CCC(NC(=O)c2cc(C3CC3)on2)C1c1ccc(F)cc1 (stereo not shown) [compound 13, 5-cyclopropyl-N-(2-(4-fluorophenyl)-1-methylpyrrolidin-3-yl)isoxazole-3-carboxamide] was tested. Which IC50 did it give?
A: 51.9 µM

Q: How did the IC50 turn out when CN1C(=O)CC(NC(=O)c2cc(C3CC3)on2)C1c1ccc(F)cc1 (stereo not shown) [compound 14, 5-cyclopropyl-N-(2-(4-fluorophenyl)-1-methyl-5-oxopyrrolidin-3-yl)isoxazole-3-carboxamide] was run?
A: 58.5 µM

Q: For Cn1ccc(N2CCC(NC(=O)c3cc(C4CC4)on3)C2=O)n1 (stereo not shown) [compound 15, 5-cyclopropyl-N-(1-(1-methyl-1H-pyrazol-3-yl)-2-oxopyrrolidin-3-yl)isoxazole-3-carboxamide], which IC50 is on record?
A: 158 µM

Q: For COc1cccc(C2C(NC(=O)c3cc(C4CC4)on3)CCN2C2CC2)c1 (stereo not shown) [compound 16, 5-cyclopropyl-N-(1-cyclopropyl-2-(3-methoxy-phenyl)pyrrolidin-3-yl)isoxazole-3-carboxamide], which IC50 is on record?
A: 77.4 µM

Q: With CC1CC(NC(=O)c2cc(C3CC3)on2)CN1Cc1ccccc1 (stereo not shown) [compound 21, N-(1-benzyl-5-methylpyrrolidin-3-yl)-5-cyclopropyl-isoxazole-3-carboxamide] as the compound, how does the IC50 read?
A: 54.1 µM

Q: Which IC50 does the source give for CC1CC(NC(=O)c2cc(C3CC3)on2)CN1C1CC1 (stereo not shown) [compound 22, 5-cyclopropyl-N-(1-cyclopropyl-5-methylpyrrolidin-3-yl)isoxazole-3-carboxamide] here?
A: 47.1 µM

Q: With CC1CN(C2CC2)CC1NC(=O)c1cc(C2CC2)on1 (stereo not shown) [compound 23, 5-cyclopropyl-N-(1-cyclopropyl-4-methylpyrrolidin-3-yl)isoxazole-3-carboxamide] as the compound, how does the IC50 read?
A: 48.5 µM

Q: With CC(c1ccccc1)N1CCC(NC(=O)c2cc(C3CC3)on2)C1 (stereo not shown) [compound 24, 5-cyclopropyl-N-(1-(1-phenylethyl)pyrrolidin-3-yl)isoxazole-3-carboxamide] as the compound, how does the IC50 read?
A: 38.4 µM

Q: How did the IC50 turn out when O=C(NC1CC(=O)N(c2ccccc2)C1)c1cc(C2CC2)on1 (stereo not shown) [compound 25, 5-cyclopropyl-N-(5-oxo-1-phenylpyrrolidin-3-yl)isoxazole-3-carboxamide] was run?
A: 98.8 µM

Q: For O=C(NC1CC(=O)N(Cc2ccccc2)C1)c1cc(C2CC2)on1 (stereo not shown) [compound 26, N-(1-benzyl-5-oxopyrrolidin-3-yl)-5-cyclopropylisoxazole-3-carboxamide], which IC50 is on record?
A: 88.4 µM

Q: How did the IC50 turn out when O=C(NC1CCN(Cc2ccccc2)C1=O)c1cc(C2CC2)on1 (stereo not shown) [compound 27, N-(1-benzyl-2-oxopyrrolidin-3-yl)-5-cyclopropylisoxazole-3-carboxamide] was run?
A: > 200 µM

Q: How did the IC50 turn out when O=C(NC1CCN(c2ccccc2)C1=O)c1cc(C2CC2)on1 (stereo not shown) [compound 28, 5-cyclopropyl-N-(2-oxo-1-phenyl-pyrrolidin-3-yl)isoxazole-3-carboxamide] was run?
A: 94.2 µM
